Measured values published in PMC7367873, “Dissecting the sequence determinants for dephosphorylation by the catalytic subunits of phosphatases PP1 and PP2A” (Nature Communications, 2020).

Columns and labels:
[1] = test system: GFP-14-3-3β and its binding proteins; assay: GFP-14-3-3β co-IP with LC-MS/MS label-free quantification, untreated versus PP1c-treated; design: species or system human
Method: (§1) HeLa Kyoto cells expressing transiently transfected pEGFP(C1)-14-3-3β or pEGFP(C1) control plasmid, were incubated with 20 nM Calyculin A (# 9902 S, Cell Signaling Technology) for 12 min. Cells were washed twice on ice with cold PBS and after addition of 500 µL lysis buffer (100 mM NaCl, 10 mM Tris, 0.1% IGEPAL, 1 mM EDTA, 1 mM EGTA, 20 nM Calyculin A, 1x cOmplete Mini protease inhibitor cocktail (Sigma), 1 mM DTT, 1 mM MnCl2) cells were scraped from plates, lysed by 10 pushes through an injection needle (21 G, BD) and the insoluble fraction was pelleted by centrifugation (10 min, 10^4 rcf, 4 °C). Supernatants were then subjected to incubation with 1 µM recombinant phosphatase or buffer for 1 h at 30 °C. Next, we subjected samples to immunoprecipitation using α-GFP nanobodies covalently coupled to agarose beads (2 h, 4 °C, obtained from the EMBL PEPcore Core Facility). Beads were then washed three times with lysis buffer and samples were eluted in 1x LDS sample buffer (Thermo Fisher Scientific) by heating to 70 °C for 10 min.
(§2) The samples were then reduced with 25 mM dithiothreitol (10 min at 70 °C) and alkylated with 55 mM chloroacetamide (room temperature, 30 min, in the dark). Proteins were run on a precast 4–12% NuPAGE gel (ThermoFisher Scientific) for about 1 cm to concentrate the sample prior to in-gel tryptic digestion, which was performed according to the standard procedures. The peptides obtained were dried to completeness and resuspended in 12 µL of buffer A (0.1% FA), and 5 µL of sample were injected per MS measurement. The experiment was carried out in three independent replicates.
(§3) The samples were analyzed by LC-MS/MS on a Dionex Ultimate 3000 nano-HPLC coupled online to a Fusion Lumos Tribrid mass spectrometer (Thermo Fisher Scientific). Peptides were delivered to a trap column (75 µm × 2 cm, packed in-house with 5 µm C18 resin; Reprosil PUR AQ, Dr. Maisch) and washed using 0.1% FA at a flow rate of 5 µL/min for 10 min. Subsequently, peptides were transferred to an analytical column (75 µm × 45 cm, packed in-house with 3 µm C18 resin; Reprosil Gold) applying a flow rate of 300 nL/min and separated using a 60 min linear gradient from 4% to 32% LC solvent B (0.1% FA, 5% DMSO in ACN) in LC solvent A (0.1% FA in 5% DMSO). The eluate from the analytical column was sprayed via a stainless steel emitter (Thermo Fisher Scientific) at a source voltage of 2.1 kV into the mass spectrometer. The transfer capillary was heated to 275 °C. The Fusion Lumos was operated in positive ionization mode and data-dependent acquisition (DDA), automatically switching between MS1 and MS2 spectrum acquisition. Full scan MS1 spectra were recorded in the Orbitrap from 360 to 1300 m/z at a resolution of 60k (automatic gain control (AGC) target value of 4e5 charges, maximum injection time (maxIT) of 50 ms). Up to 20 peptide precursors were isolated (isolation window, 1.7 m/z; maximum injection time, 25 ms; and AGC value, 1e5), fragmented by high-energy collision-induced dissociation (HCD) using 30% normalized collision energy (NCE), and analyzed at a resolution of 15k in the Orbitrap. Precursor ions that were singly charged, unassigned, or with charge states >6+ were excluded. The dynamic exclusion duration of fragmented precursor ions was 20 s.
(§4) Peptide and protein identification and LFQ were performed using MaxQuant software (version 1.6.1.0)[64] by searching the data against all canonical protein sequences as annotated in the Swissprot reference database (human proteins only, 20193 entries, downloaded 22 March 2016, internally annotated with PFAM domains) using the embedded search engine Andromeda[65]. The MaxQuant search was performed using two variable modifications; oxidation of methionine and N-terminal protein acetylation. Carbamidomethylation on cysteines was specified as a fixed modification. Trypsin (Trypsin/P) was specified as the proteolytic enzyme with up to two allowed missed cleavage sites.

GFP-14-3-3β = GFP-14-3-3β co-IP with LC-MS/MS, untreated GFP-14-3-3β versus GFP control (14-3-3 interactome); type: binding, human
Method: as §1, §2, §3, §4

[2] = GFP-14-3-3β co-IP LC-MS/MS, PP1 vs untreated, student's t-test, label-free quantification, 3 replicates each
[3] = GFP-14-3-3β co-IP LC-MS/MS, untreated vs GFP, student's t-test, label-free quantification, 3 replicates each
[4] = pairwise comparison PP1 vs untreated
[5] = pairwise comparison untreated vs GFP
[6] = PP1 vs untreated, LFQ intensities, replicates 1-3
[7] = untreated vs GFP, LFQ intensities, replicates 1-3
[8] = pairwise comparison PP1 vs untreated, student's t-test, 3 replicates each, LC-MS/MS label-free quantification
[9] = pairwise comparison untreated GFP-14-3-3β vs GFP, student's t-test, 3 replicates each, LC-MS/MS label-free quantification
[10] = PP1 vs untreated, LFQ intensities, 3 replicates each
[11] = untreated vs GFP, LFQ intensities, 3 replicates each
[12] = PP1 vs untreated, label-free quantification
[13] = untreated vs GFP, label-free quantification

## IQGAP1
[1]; [2]
  Difference (log2), PP1 vs untreated: -0.359 log2
GFP-14-3-3β; [3]
  Difference (log2), untreated vs GFP: 0.3872 log2

## ITPR3
[1]; [4]
  Difference (log2), PP1 vs untreated: 0.1762 log2
GFP-14-3-3β; [5]
  Difference (log2), untreated vs GFP: -0.007222 log2

## KARS
[1]; [2]
  Difference (log2), PP1 vs untreated: -0.3502 log2
GFP-14-3-3β; [3]
  Difference (log2), untreated vs GFP: -0.1156 log2

## KHDRBS1
[1]; [6]
  Difference (log2), PP1 vs untreated: -0.7597 log2
GFP-14-3-3β; [7]
  Difference (log2), untreated vs GFP: -0.7979 log2

## KIAA0930
[1]; [8]
  Difference (log2), PP1 vs untreated: -2.858 log2
GFP-14-3-3β; [9]
  Difference (log2), untreated vs GFP: 3.752 log2

## KIAA1671
[1]; [2]
  Difference (log2), PP1 vs untreated: -0.2284 log2
GFP-14-3-3β; [3]
  Difference (log2), untreated vs GFP: 1.934 log2

## LAMA5
[1]; [10]
  Difference (log2), PP1 vs untreated: 0.4607 log2
GFP-14-3-3β; [11]
  Difference (log2), untreated vs GFP: -1.96 log2

## LANCL1
[1]; [6]
  Difference (log2), PP1 vs untreated: -1.493 log2
GFP-14-3-3β; [7]
  Difference (log2), untreated vs GFP: -0.5316 log2

## LARP4
[1]; [12]
  Difference (log2), PP1 vs untreated: 0.983 log2
GFP-14-3-3β; [13]
  Difference (log2), untreated vs GFP: -0.1959 log2

## LARP4B
[1]; [12]
  Difference (log2), PP1 vs untreated: 0.8043 log2
GFP-14-3-3β; [13]
  Difference (log2), untreated vs GFP: 0.9646 log2

## LARS
[1]; [4]
  Difference (log2), PP1 vs untreated: 0.05859 log2
GFP-14-3-3β; [5]
  Difference (log2), untreated vs GFP: -0.7263 log2

## LGALS1
[1]; [10]
  Difference (log2), PP1 vs untreated: 0.4051 log2
GFP-14-3-3β; [11]
  Difference (log2), untreated vs GFP: -0.7235 log2

## LGALS3
[1]; [6]
  Difference (log2), PP1 vs untreated: -0.9155 log2
GFP-14-3-3β; [7]
  Difference (log2), untreated vs GFP: 0.3389 log2

## LMO7
[1]; [8]
  Difference (log2), PP1 vs untreated: -2.202 log2
GFP-14-3-3β; [9]
  Difference (log2), untreated vs GFP: 0.9984 log2

## MAP7D1
[1]; [12]
  Difference (log2), PP1 vs untreated: 0.8008 log2
GFP-14-3-3β; [13]
  Difference (log2), untreated vs GFP: 0.3595 log2

## MARK1
[1]; [8]
  Difference (log2), PP1 vs untreated: -2.037 log2
GFP-14-3-3β; [9]
  Difference (log2), untreated vs GFP: 5.5786 log2

## MARK2
[1]; [8]
  Difference (log2), PP1 vs untreated: -2.124 log2
GFP-14-3-3β; [9]
  Difference (log2), untreated vs GFP: 5.827 log2

## MARK3
[1]; [8]
  Difference (log2), PP1 vs untreated: -2.088 log2
GFP-14-3-3β; [9]
  Difference (log2), untreated vs GFP: 4.732 log2

## MAT2A
[1]; [8]
  Difference (log2), PP1 vs untreated: -2.199 log2
GFP-14-3-3β; [9]
  Difference (log2), untreated vs GFP: 0.8108 log2

## MCM7
[1]; [12]
  Difference (log2), PP1 vs untreated: 1.01 log2
GFP-14-3-3β; [13]
  Difference (log2), untreated vs GFP: 0.04561 log2

## MED1
[1]; [12]
  Difference (log2), PP1 vs untreated: 1.148 log2
GFP-14-3-3β; [13]
  Difference (log2), untreated vs GFP: 0.09613 log2

## MGST3
[1]; log2 difference, pairwise comparison PP1 vs untreated, label-free quantification, 3 replicates each
  Difference (log2), PP1 vs untreated: 1.301
GFP-14-3-3β; log2 difference, pairwise comparison untreated vs GFP, label-free quantification, 3 replicates each
  Difference (log2), untreated vs GFP: 0.5005

## MKI67
[1]; [4]
  Difference (log2), PP1 vs untreated: 0.1166 log2
GFP-14-3-3β; [5]
  Difference (log2), untreated vs GFP: 1.0535 log2

## MLEC
[1]; [6]
  Difference (log2), PP1 vs untreated: -1.535 log2
GFP-14-3-3β; [7]
  Difference (log2), untreated vs GFP: 0.8854 log2

## MSH6
[1]; [4]
  Difference (log2), PP1 vs untreated: 0.0512 log2
GFP-14-3-3β; [5]
  Difference (log2), untreated vs GFP: 1.062 log2

## MTCL1
[1]; [4]
  Difference (log2), PP1 vs untreated: 0.08295 log2
GFP-14-3-3β; [5]
  Difference (log2), untreated vs GFP: 0.986 log2

## MYCBP2
[1]; [8]
  Difference (log2), PP1 vs untreated: -3.693 log2
GFP-14-3-3β; [9]
  Difference (log2), untreated vs GFP: 7.929 log2
